The NIST ThermoML archive (doi:10.1021/je101302p)
± gives the expanded uncertainty stated by the source.

Details: Liquid; for mass density: 298.15 K, 101.33 kPa, Vibrating tube method

Row | mass density | vapor or sublimation pressure (370.29 K) | vapor or sublimation pressure (414.53 K) | vapor or sublimation pressure (395.1 K) | Structure (SMILES)
1 | 804.269 ± 0.19 kg/m3 | 101.3 ± 3.4 kPa |  |  | CCCO [propan-1-ol]
2 | 993.722 ± 0.3 kg/m3 |  | 101.3 ± 3.4 kPa |  | CCC(=O)O [propanoic acid]
3 | 881.619 ± 0.3 kg/m3 |  |  | 101.3 ± 1.7 kPa | CCCOC(=O)CC [propyl propanoate]
